In PMC11111404, “Discovery of potent small-molecule inhibitors of lipoprotein(a) formation” (Nature, 2024):
Several values for one entry are separate records, joined by “and”; a condition that tells them apart may be missing. Identical values can stand only once.

Assays:
apo(a) KIV8 = target: T1, apo(a) KIV8 (Homo sapiens, UniProt P08519); assay: ITC binding to apo(a) KIV8
T1 construct: made in house
T1 sequence (P08519 1387-1465 limits assumed): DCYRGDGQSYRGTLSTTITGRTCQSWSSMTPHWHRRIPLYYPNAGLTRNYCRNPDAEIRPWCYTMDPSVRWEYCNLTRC
Protocol: The nucleotide sequence encoding the human LPA gene (NP_005568.2) was inserted into a mammalian expression vector containing a cytomegalovirus promoter. Protein expression was performed by transient transfection of human embryonic kidney 293 (HEK293) cells cultured in serum-free medium. The culture medium was collected five days after transfection and human apo(a) protein was purified using L-lysine affinity chromatography. Nucleotide sequences encoding various KIV domains of human apo(a) and human and rat plasminogen were inserted into a pET21a Escherichia coli expression vector. Bacterial BL21(DE3) was used as the expression host, and the induction of protein expression was performed in 2× TY medium with 1 mM isopropyl β-D-1-thiogalactopyranoside at 37 °C for 5 h. Cells were collected and stored at –80 °C for subsequent protein purification and refolding. […] All protein concentrations were determined by A280.
Experiments were performed on a MicroCal Auto-iTC200 titration calorimeter (Malvern Panalytical), with a cell volume of 200 μl and a 40-μl microsyringe. […] The microsyringe was loaded with a solution of the respective compounds, with the concentration measured by quantitative nuclear magnetic resonance, and was inserted into the calorimetric cell prefilled with the respective recombinant proteins of known concentration in ITC buffer. […]

Lp(a) = Lp(a) levels in cynomolgus monkeys; assay type: in vivo, cynomolgus monkey (Macaca fascicularis); parameters: key to Mean_pCFB_vs_Veh / Mean_pCFB_vs_Veh (Lp(a)): % change from pre-dose, treated group compared with vehicle; key to Mean_pCFB / Mean_pCFB (Lp(a)): % change in Lp(a) from before dosing; Lp(a): unit not given here; conditions: for Lp(a): Fig 3b raw data; for Mean_pCFB / Mean_pCFB_vs_Veh: Lp(a), female cynomolgus monkeys; for maximum decrease of median Lp(a) levels / %Lp(a) max decrease (dose, mg/kg): cynomolgus monkeys; for maximum decrease of median Lp(a) levels: after 5 days; for %Lp(a) max decrease (dose, mg/kg): 14 days dosing
Protocol: Female or male Chinese Macaca fascicularis cynomolgus monkeys (as described in the figure legends) of unspecified ages with body weight ranging from 2.0 kg to 5.0 kg were housed in cages with a standard light cycle (12-h light, 12-h dark) at room temperature (20–26 °C); the relative humidity ranged from 30% to 70%. Monkeys were given fruits, vegetables or dietary enrichment as a form of environmental enrichment, and various cage enrichment devices. Purina Lab diet 5048C was provided BID and individual monkeys were identified by cage card. The monkeys were randomized to treatment groups by body weight and baseline plasma Lp(a) concentration, as determined by a commercially available Randox assay (Randox LP2757), using a BRAT for the study. In an example cynomolgus monkey study in which 39 monkeys were prescreened for baseline Lp(a) levels, the average Lp(a) level was 350 ± 57 µg ml^−1 (range 53–1,667 µg ml^−1). Monkeys were dosed orally with vehicle (purified water) or compounds QD or BID for 14 days, at dose levels and frequencies as previously described for each compound. Plasma samples were collected on days before dosing to establish baseline Lp(a) and after the morning dose during the study. Lp(a) levels were measured by an investigator who was blinded to group allocation using the Randox assay, and were quantified relative to the calibrator series (Randox LP3404). Data were analysed in GraphPad Prism v.9.5.1. The Lp(a) percentage change from before dosing in non-human primates was analysed by repeated measures ANOVA in SAS v.9.4 (SAS). At each time point, the Lp(a) percentage change for each treated group was compared with vehicle by the Bonferroni method.

[1] = 2mpk BID, Day 1, individual cynos
[2] = 2mpk BID, Day 3, individual cynos
[3] = 2mpk BID, Day 5, individual cynos
[4] = 2mpk BID, Day 9, individual cynos
[5] = 2mpk BID, Day 14, individual cynos
[6] = 10mpk BID, Day 1, individual cynos
[7] = 10mpk BID, Day 3, individual cynos
[8] = 10mpk BID, Day 5, individual cynos
[9] = 10mpk BID, Day 9, individual cynos
[10] = 10mpk BID, Day 14, individual cynos

Kd (apo(a) KIV8): < 10 nM
SMILES: Cl.Cl.O=C(Nc1cccc(C[C@H](C(=O)O)[C@H]2CCNC2)c1)Nc1cccc(C[C@H](C(=O)O)[C@H]2CCNC2)c1 [LSN3441732]
pCFB (pct chng from baseline, Lp(a)) (Lp(a); [1]): -0.8715 pct and -9.178 pct and 9.115 pct and 2.958 pct and -14.9999 pct and -4.998 pct and -4.507 pct and 6.837 pct
Lp(a) (Lp(a); [1]): 66.699 and 27.339 and 53.349 and 76.924
pCFB (pct chng from baseline, Lp(a)) (Lp(a); [2]): -26.3908 pct and -7.214 pct and -20.0294 pct and -41.4028 pct and -34.8821 pct and 12.2337 pct and -15.3593 pct and -16.4032 pct
Lp(a) (Lp(a); [2]): 59.119 and 21.392 and 39.615 and 78.588
pCFB (pct chng from baseline, Lp(a)) (Lp(a); [3]): -60.4222 pct and -23.7562 pct and -53.193 pct and -73.9823 pct and -52.767 pct and 10.0362 pct and -38.056 pct and -25.4812 pct
Lp(a) (Lp(a); [3]): 43.266 and 19.069 and 21.3 and 64.577
pCFB (pct chng from baseline, Lp(a)) (Lp(a); [4]): -46.3414 pct and -22.6794 pct and -48.3056 pct and -58.1644 pct and -48.9556 pct and 33.2038 pct and -34.8562 pct and -42.8477 pct
Lp(a) (Lp(a); [4]): 45.501 and 14.625 and 28.878
pCFB (pct chng from baseline, Lp(a)) (Lp(a); [5]): -26.8256 pct and -20.2744 pct and -41.4618 pct and -48.6082 pct and -43.1214 pct and 61.8786 pct and -34.6787 pct and -24.6097 pct
Lp(a) (Lp(a); [5]): 24.162 and 45.625 and 19.292 and 39.381
Lp(a) (Lp(a); 2mpk BID, Day -1 (pre-dose), individual cynos): 76.499 and 27.63 and 59.314 and 80.73
Lp(a) (Lp(a); 2mpk BID, Day -14 (pre-dose), individual cynos): 63.195 and 23.549 and 48.322 and 88.666
pCFB (pct chng from baseline, Lp(a)) (Lp(a); [6]): 6.085 pct and 18.5121 pct and 11.2235 pct and -12.4022 pct and 3.527 pct and -18.0886 pct and 0.3688 pct and -16.5769 pct
Lp(a) (Lp(a); [6]): 42.107 and 61.295 and 35.316 and 53.315 and 65.761 and 52.068 and 17.81 and 84.78
pCFB (pct chng from baseline, Lp(a)) (Lp(a); [7]): -30.0594 pct and -45.1266 pct and -34.624 pct and -67.6349 pct and -34.8372 pct and -50.8715 pct and -17.9315 pct and -61.9012 pct
Lp(a) (Lp(a); [7]): 19.23 and 40.411 and 16.352 and 31.338 and 24.297 and 32.773 and 10.682 and 69.322
pCFB (pct chng from baseline, Lp(a)) (Lp(a); [8]): -74.5889 pct and -41.8647 pct and -61.4356 pct and -52.9091 pct and -78.302 pct and -39.7105 pct and -69.6086 pct and -32.2067 pct
Lp(a) (Lp(a); [8]): 12.826 and 33.59 and 11.492 and 22.573 and 16.289 and 30.322 and 6.608
pCFB (pct chng from baseline, Lp(a)) (Lp(a); [9]): -56.8372 pct and -40.6982 pct and -59.7007 pct and -36.5829 pct and -68.9989 pct and -34.2069 pct and -69.9581 pct and 8.689 pct
Lp(a) (Lp(a); [9]): 21.786 and 34.264 and 12.009 and 30.399 and 23.273 and 33.09 and 6.532
pCFB (pct chng from baseline, Lp(a)) (Lp(a); [10]): -44.94 pct and -47.7665 pct and -60.9759 pct and -27.3662 pct and -62.6383 pct and -7.387 pct and -32.53 pct and -7.053 pct
Lp(a) (Lp(a); [10]): 27.791 and 30.18 and 11.629 and 34.817 and 28.048 and 46.579 and 14.67
Lp(a) (Lp(a); 10mpk BID, Day -1 (pre-dose), individual cynos): 51.607 and 58.876 and 34.406 and 53.514 and 88.739 and 49.824 and 82.77 and 24.664
Lp(a) (Lp(a); 10mpk BID, Day -14 (pre-dose), individual cynos): 49.341 and 56.682 and 25.193 and 42.356 and 61.404 and 86.167 and 50.764 and 18.822
Mean_pCFB (Lp(a); 2mpk BID, day 1): -1.96
Mean_pCFB_vs_Veh (Lp(a); 2mpk BID, day 1): -1.99
Mean_pCFB (Lp(a); 2mpk BID, day 3): -18.68
Mean_pCFB_vs_Veh (Lp(a); 2mpk BID, day 3): -8.97
Mean_pCFB (Lp(a); 2mpk BID, day 5): -39.7
Mean_pCFB_vs_Veh (Lp(a); 2mpk BID, day 5): -22.16
Mean_pCFB (Lp(a); 2mpk BID, day 9): -33.62
Mean_pCFB_vs_Veh (Lp(a); 2mpk BID, day 9): -19.16
Mean_pCFB (Lp(a); 2mpk BID, day 14): -22.21
Mean_pCFB_vs_Veh (Lp(a); 2mpk BID, day 14): -17.15
Mean_pCFB (Lp(a); 10mpk BID, day 1): -0.92
Mean_pCFB_vs_Veh (Lp(a); 10mpk BID, day 1): -0.95
Mean_pCFB (Lp(a); 10mpk BID, day 3): -42.87
Mean_pCFB_vs_Veh (Lp(a); 10mpk BID, day 3): -33.16
Mean_pCFB (Lp(a); 10mpk BID, day 5): -56.33
Mean_pCFB_vs_Veh (Lp(a); 10mpk BID, day 5): -38.79
Mean_pCFB (Lp(a); 10mpk BID, day 9): -44.79
Mean_pCFB_vs_Veh (Lp(a); 10mpk BID, day 9): -30.33
Mean_pCFB (Lp(a); 10mpk BID, day 14): -36.33
Mean_pCFB_vs_Veh (Lp(a); 10mpk BID, day 14): -31.27
maximum decrease of median Lp(a) levels (Lp(a); 2 mg kg^−1 oral BID): 45%
%Lp(a) max decrease (dose, mg/kg) (Lp(a); 2 mg/kg BID): 40%
maximum decrease of median Lp(a) levels (Lp(a); 10 mg kg^−1 oral BID): 57%
%Lp(a) max decrease (dose, mg/kg) (Lp(a); 10 mg/kg BID): 56%
